# Results from patent US20070087064A1, “Composition for preventing and treating climacteric symptoms comprising the extract of sophorae fructus” (DREXGENEBIOTECH CO., LTD., priority 2003, published 2007).
# What was measured:
# [1] = system: Dpd (deoxypyridinoline); assay: Dpd concentration in blood plasma of ovari-ectomized rats; format: in vivo, rat
# Protocol: (§1) For removal of ovary, a 12-week old white rat was anesthetized by ether. The rat got a shave on its back by a razor. Oophorectomy was performed after sterilizing the operating area with 70% ethanol. Particularly, skin was cut 2˜3 cm along the spinal column of the abdominal lower-flank region of one side, and then, muscle and peritoneum were incised 1.5 cm to exposure ovary. After ligating oviduct by a silk, the ovary was cut off and peritoneum, muscle and skin were sutured by a silk. The other side ovary was ectomized by the same procedure. Sham operation was performed for a control group, which opened peritoneum but sutured without taking ovary out. A period of recovery was 1 week.
# Test animals were classified into three groups; a normal group (non-ovari-ectomized group), a control group 1 (sham-operated group) and an ovari-ectomized group. […]
# Dpd concentration in blood plasma obtained above was measured by competitive enzyme immunoassay using a Dpd concentration measuring kit (Pyrilinks-D, Quidel Corporation, USA) in which an anti-Dpd antibody was included. […] After reaction was finished, OD450 was measured. Then, Dpd concentration was calculated by using a calibration curve made to explain the relation between Dpd content and optical density (FIG. 11).
# Based on the result of the above Example <5-4>, changes of Dpd concentration after administering each sample for 9 weeks were quantified by the below formula. […]
# In order to confim the effects of the extract of Sophorae Fructus of the present invention, Dpd concentrations in groups administered with the extract of Sophorae Fructus of the present invention were calculated by comparing with Dpd concentration in a control group 2 (ovari-ectomized) in which osteoporosis was progressed much. […]
# [2] = Calcium concentration in blood plasma of ovari-ectomized rats, OCPC method; format: in vivo, rat
# Protocol: as §1, with “week. Test animals were classified into three groups; a normal group (non-ovari-ectomized group), a control group 1 (sham-operated group) and an ovari-ectomized group. […] Therefore, measuring optical density of the magenta color leads to the quantification of calcium in a reagent. […]” for “week.”
# [3] = system: IGF-1; assay: IGF-1 secretion in osteoblasts, ELISA; format: cell-based, human; details: MG-63 cells, 10^-4%
# Protocol: (§2) In order to investigate whether the extract of Sophorae Fructus of the present invention could stimulate the secretion of IGF-1 and TGF-beta in osteoblasts, each sample was treated to MG-63 human osteoblast-like cells by the same method as used in Example <4-4>, and then, ELISA and RT-PCR were performed to measure the secretion and the expression of IGF-1 and TGF-beta. The expression levels of IGF-1 and TGF-beta were represented by a comparative rate (%) to that of a control. ELISA was performed by using ELISA kit (Quantikine, R&D system) according to the provided protocol to investigate the secretion of IGF-1 and TGF-beta. Then, optical density was measured by the same method as used in the Example <4-4>. RT-PCR was also performed by the same method as used in the above Example <4-4>. Each primer used for the RT-PCR was presented below.
# [4] = system: TGF-beta; assay: TGF-beta secretion in osteoblasts, ELISA; format: cell-based, human; details: MG-63 cells
# Protocol: as §2
# [5] = Weight changes and weight gaining rate in ovari-ectomized rats; format: in vivo, rat
# Protocol: As the experimental animals, white female SD (Sprague-Dawley) rats (230˜250 g) were purchased from Hallym Research Institute of Experimental animals (Kyunggido, Korea). The rats were raised at 23±1° C., under 40˜60% humidity and 12-hour light and shade cycle. Feed (solid feed, Hallym Research Institute of Experimental animals, Kyunggido, Korea) and water were given freely, but just water was supplied on the day before drawing blood. For removal of ovary, a 12-week old white rat was anesthetized by ether. The rat got a shave on its back by a razor. Oophorectomy was performed after sterilizing the operating area with 70% ethanol. Particularly, skin was cut 2˜3 cm along the spinal column of the abdominal lower-flank region of one side, and then, muscle and peritoneum were incised 1.5 cm to exposure ovary. After ligating oviduct by a silk, the ovary was cut off and peritoneum, muscle and skin were sutured by a silk. The other side ovary was ectomized by the same procedure. Sham operation was performed for a control group, which opened peritoneum but sutured without taking ovary out. A period of recovery was 1 week. Test animals were classified into three groups; a normal group (non-ovari-ectomized group), a control group 1 (sham-operated group) and an ovari-ectomized group. The ovari-ectomized group was sub-divided into a control group 2, which was not administered with a sample, a 17-beta estradiol treating group (E group), an extract of Sophorae Fructus of Example 1 administering group (R-G group), an enzyme extract of Sophorae Fructus of Example 2 administering group (R-A group), a food composition comprising the extract of Sophorae Fructus of Example 3 administering group (R-P group) and a soybean ex-powder administering group (S-S group) by 10 animals each (Table 1). […] Weights of each group of the above Example <5-2> were measured with an electronic scale, from which weight gaining rate per day was calculated by the below formula. […]
# [6] = system: MG-63 human osteoblast-like cells; assay: Osteoblast proliferation, MTT method; format: cell-based; details: MG-63 cells, 72 hours
# Protocol: MG-63 human osteoblast-like cells were distributed from Korean Cell Line Bank of Seoul National University College of Medicine, Seoul, Korea, which were sub-cultured for fuirther use. The frozen MG-63 human osteoblast-like cells were melted in a 37° C. water bath for 1 minute, followed by centrifugation with 1300 rpm for 5 minutes to eliminate supernatant. The obtained pellet was re-suspended in DMEM supplemented with 10% FBS, which was, then, distributed in a […] culture flask for further culture. The duration of culture was 2 weeks for cell stability. After confirming under a microscope that a monolayer was stably formed, the cells were used for the experiments. In order to investigate the osteoblast proliferation after the treatment of an extract of Sophorae Fructus, MG-63 human osteoblast-like cells of the above Example <4-1> were treated with the Sophorae Fructus extract powder of Example 1 (R-G), the Sophorae Fructus enzyme extract powder of Example 2 (R-A), and the food composition comprising an extract of Sophorae Fructus of Example 3 (R-P), which were cultured for 3 days. The effects of the above extracts on cell proliferation were measured by MTT method. […] After complete mixing, color changes were checked and OD570 was measured using an ELISA plate reader within an hour.
smiles,measurement,setting,value
"C[C@]12CC[C@@H]3c4ccc(O)cc4CC[C@H]3[C@@H]1CC[C@@H]2O [E, 17-beta estradiol]",Dpd concentration in blood plasma after 9 weeks of administration (10th week),"[1]; 0.556 g/kg/day oral, E group 1 g/kg/day intraperitoneal",rapid drop of Dpd concentration
same,"decrease rate of Dpd, regarding the amount of decreased Dpd of E group as 100%",[1]; 9 weeks administration,100%
same,ΔDpd value (Dpd before administration versus after 9-week administration),[1]; negative = decrease of Dpd concentration,negative
same,"calcium concentration in blood plasma, 10 week","[2]; after 9 weeks administration (0.556 g/kg/day oral; estradiol 1 g/kg/day intraperitoneal), mean ± SD",17.96 ± 1.334
same,course of calcium concentration in blood plasma after start of administration,[2]; from the first week on,rapid increase of calcium concentration
same,"IGF-1 concentration (ELISA), comparison of groups",[3],highest IFG-1 concentration
same,TGF-beta concentration (ELISA),[4]; 10^-4 to 10^-10%,evenly higher TGF-beta concentration
same,TGF-beta concentration / secretion promoting activity (ELISA),[4]; minimum concentration 10^-12%,decreased to the similar level to that in a control group
same,Weight gaining rate (g/day),"[5]; ovari-ectomized SD rats, 12 to 22 weeks old, 0.556 g/kg/day oral, E group 1 g/kg/day intraperitoneal, mean ± SD, * significant p < 0.05",1.0095 ± 0.1* g/day
same,Weight (g): Final weight (22 weeks old),"[5]; ovari-ectomized SD rats, after 9 weeks administration (0.556 g/kg/day oral; E group 1 g/kg/day intraperitoneal), mean ± SD",302.4 ± 29.885 g
same,weight gaining after removal of ovary,"[5]; ovari-ectomized rats, versus rapid weight gaining in control group 2",slow
same,"osteoblast proliferation effect (MTT, OD570)",[6]; 10^-4 to 10^-12%,cell proliferation depended on its concentration
same,osteoblast proliferation at low concentration versus high concentration,[6]; low concentration 10^-10% (estradiol 10^-10% and 10^-12%),proliferation decreased
